The text below walks through data of patent US20090124651A1, “CATECHOLAMINE DERIVATIVES AND PRODRUGS THEREOF” (H. LUNDBECK A/S, priority 2007, published 2009).

Structures are written as SMILES.

One series has as its system motility deficits. The series is described as follows: Superiority model: mouse model of severe dopamine depletion. Type of series: in vivo. The source says: Both Apomorphine and L-DOPA stimulate D1 and D2-like dopamine receptors.
For series [1] the following is noted: man, oral dosing; cited from earlier work.
In another series the test system is Parkinson's disease. Particulars: PD patients, intravenous (IV); cited from earlier work.

Regarding `CN1CCc2cccc3c2[C@H]1Cc1ccc(O)c(O)c1-3` [Apomorphine], the “reversal of motility deficits / restoration of locomotion” value with motility deficits is recorded as “able to reverse motility deficits”.
Take `CCCc1cc2c(s1)CN[C@@H]1CCc3cc(OC(C)=O)c(OC(C)=O)cc3[C@@H]21` [Adrogolide]: the oral bioavailability in series [1] is around 4%. Also, the antiparkinson efficacy entry with Parkinson's disease is on record as “comparable to that of L-DOPA”.
Consider `N[C@@H](Cc1ccc(O)c(O)c1)C(=O)O` [L-DOPA, (levo)-3,4-dihydroxy phenylalanine], for which the “reversal of motility deficits / restoration of locomotion” value with motility deficits was “able to reverse motility deficits”.
